For series [1], the system named is WNT pathway STF reporter gene. Briefly: Super-Top-Flash (STF) reporter gene inhibitory activity test. The class given is cell-based. To be noted: HEK293 STF and L wnt3A cells 1:1, 24 hours, Bright-Glo. As to the method:
HEK293 STF and L wnt3A cells were provided by Wuhan Heyan Biomedical Technology Co., Ltd., and Bright Glo was purchased from Promega.
• HEK293 STF and L wnt3A cells were seeded in a white 96-well plate at a ratio of 1:1, with 80 μL of cell suspension per well, each containing 20,000 HEK293 STF cells and 20,000 L wnt3A cells. The cell plate was placed in a carbon dioxide incubator for overnight culture.
The test compounds were 5-fold diluted with a multi-channel pipette to the 8th concentration, i.e., diluted from 400 μM to 5.12 nM, and duplicate experiment was set. 78 μL of culture medium was added to an intermediate plate, and then 2 μL of gradient diluted compound per well was transferred to the intermediate plate according to the corresponding position. After mixing well, the compound was transferred to the cell plate at 20 μL per well. The cell plate was placed in a carbon dioxide incubator and cultured for 24 hours.
100 μL of Promega Bright-Glo reagent was added to each well of the cell plate, and it was incubated at room temperature for 10 minutes to stabilize the luminescent signal. A multimode microplate reader was used for reading.
Using the raw data from the multimode microplate reader, the IC50 value could be obtained through curve fitting. Table 10 provides the data on the inhibitory activity of the compounds of the present disclosure on the Wnt signaling pathway.
In general terms: In a reporter assay the amount or activity of a reporter protein is the signal.

The subject of series [2] is Capan-2 cells. As to the kind of experiment: Capan-2 cell anti-proliferative activity test. The class given is cell-based. As to conditions: Homo sapiens, Capan-2, 120 h; 5 days, CellTiter-Glo. As to the method:
Capan-2 cells were provided by Wuhan Heyan Biomedical Technology Co., Ltd., and CellTiter-Glo was purchased from Promega.
Capan-2 cells were seeded in a white 96-well plate, with 80 μL of cell suspension per well, each containing 5,000 Capan-2 cells. The cell plate was placed in a carbon dioxide incubator for overnight culture.
The test compounds were 3-fold diluted with a multi-channel pipette to the 9th concentration, i.e., diluted from 200 μM to 30 nM, and duplicate experiment was set. 78 μL of culture medium was added to an intermediate plate, and then 2 μL of gradient diluted compound per well was transferred to the intermediate plate according to the corresponding position. After mixing well, the compound was transferred to the cell plate at 20 μL per well. The cell plate was placed in a carbon dioxide incubator and cultured for 5 days. Another cell plate was prepared, and the signal value was read on the day of drug administration to serve as the maximum value (Max value in the equation below) for data analysis. 25 μL of cell viability chemiluminescence detection reagent was added to each well of this cell plate, and it was incubated at room temperature for 10 minutes to stabilize the luminescent signal. A multimode microplate reader was used for reading.
After the cell plate was cultured for 5 days, 25 μL of Promega CellTiter-Glo reagent was added to each well of the cell plate, and it was incubated at room temperature for 10 minutes to stabilize the luminescent signal. A multimode microplate reader was used for reading.
The IC50 value could be obtained through curve fitting, and the results of the inhibitory activity of the compounds of the present disclosure on the proliferation of Capan-2 cells are shown in Table 11.
A general note: Cellular ATP, detected with luciferase, serves as a proxy for viable cell number.

Series [3] in a line: Solvent pre-stability of crystal form A (suspension stirring, XRPD). The series is classed as physicochemical. As to conditions: for Crystal form after suspension in solvent (XRPD): stirred overnight at 25° C. As to the method: (To ensure maximum suspension of the sample, the amount of compound and solvent was adjusted during the experiment based on the observed phenomena, and even the container used for the experiment was changed if necessary.) After adding a magneton, the suspension sample was placed on a magnetic heating stirrer (25° C.) for testing. After stirring overnight at 25° C., the suspension sample was filtered, and the solid sample on the filter cake was placed in a vacuum drying oven (45° C.) to dry overnight. The crystal form of the solid was obtained by X-ray powder diffraction (XRPD) detection.

Series [4] in a line: Hygroscopicity of crystal form A (DVS). The class given is physicochemical. As to the method:
• SMS DVS intrinsic dynamic vapor sorption instrument
Note: ΔW % represents the increase in weight due to moisture absorption of the test sample at 25±1° C. and 80±2% RH.

A short description of series [5]: Solid pre-stability test of crystal form A (high temperature, high humidity, light; XRPD). The series is classed as physicochemical. The method, then:
The sample placed under high temperature (60° C.) and high humidity (relative humidity 92.5% RH) conditions was sealed with aluminum foil to seal the mouth of the vial, and small holes were made in the aluminum foil to ensure that the sample could fully contact the ambient air, and it was placed in the corresponding constant temperature and humidity box. The light sample (open, not covered with aluminum foil) and the light control sample (the entire sample vial was covered with aluminum foil) were placed in the light box. At each time point, two samples were weighed separately as official test samples. […] The sample vial was wrapped with aluminum foil and small holes were made, and it was also placed in the corresponding constant temperature and humidity box. The sample was taken for testing (XRPD) on days 5 and 10, and the test results were compared with the initial test results on day 0.

On to `Cn1cc(-c2ccc(CNc3ncnn4c(-c5cncc(F)c5)ccc34)cn2)ccc1=O` [Compound 1], for which the IC50 in series [1] was found to be 8.41 nM; in series [2], 6.09 nM.
Regarding `Cn1cc(-c2cnc(CNc3nccn4c(-c5cncc(F)c5)cnc34)cn2)ccc1=O` [Compound 3], in series [2], the midpoint of inhibition, the IC50, lay at 28 nM.
In series [2], `Cn1cc(-c2ccc(CNc3nccn4c(-c5cncc(F)c5)cnc34)cn2)ccc1=O` [Compound 4] gave a half-maximal inhibitory concentration (IC50) of 24.6 nM.
As to `Cn1cc(-c2ccc(CNc3nccc4c3ncn4-c3cncc(F)c3)cn2)ccc1=O` [Compound 5], the concentration for half-maximal inhibition (IC50) in series [2] is 11.7 nM. This IC50 lies about 2.1-fold lower than the previous one.
Regarding `Cn1cc(-c2ccc(CNc3nccn4c(-c5cncc(F)c5)cnc34)cc2)ccc1=O` [Compound 6], in series [2], the IC50 came out at 22.2 nM. This IC50 is about 1.9-fold higher than that of the compound before.
`Cn1cc(-c2ccc(CNc3nccc4c3ncn4-c3ccccc3)cn2)ccc1=O` [Compound 7]: in series [2], the concentration for half-maximal inhibition (IC50) is 5.94 nM.
Regarding `Cn1cc(-c2cnc(CNc3nccn4c(-c5cc(F)cc(F)c5)cnc34)cn2)ccc1=O` [crystal form A of compound 2], the “Crystal form after suspension in solvent (XRPD)” value (from here on “Crystal form after suspension”) in series [3] (2-Methyltetrahydrofuran), in series [3] (Acetone), in series [3] (Acetone:water (2:1)), in series [3] (Acetonitrile), in series [3] (Dioxane) and in series [3] (Ethanol) was “Crystal form A” throughout. Besides, the “Crystal form after suspension” value in series [3] (Ethanol:water (1:1)), in series [3] (Ethyl acetate), in series [3] (Isopropanol), in series [3] (Methanol), in series [3] (Methyl tert-butyl ether) and in series [3] (Tetrahydrofuran) was “Crystal form A” each time. Moreover, the “Crystal form after suspension” value in series [3] (n-Heptane) is “Crystal form A”. Moreover, the “Stability in different solvents” value in series [3] (conclusion) is recorded as “good stability”. In addition, the Hygroscopicity classification entry in series [4] (25° C. and 80% RH) is “no or almost no hygroscopicity”. In addition, the “Weight gain due to moisture absorption” value in series [4] (25° C., 80% RH, compared to initial humidity of 30% (cycle 1 adsorption)) was 0.07%; in series [4] (25° C., humidity continued to rise to 95% (cycle 1 adsorption)) it was 0.01%. Moreover, the “Weight decrease of the sample” value in series [4] (25° C., humidity continued to rise to 90%) amounted to 0.15%. Also, the “Crystal form before and after the DVS test (XRPD)” value in series [4] (30-95-0-95% RH/25° C.) was “the crystal form did not change”. Besides, the “Crystal form (XRPD)” value in series [5] (0 days) is “Crystal form A”; in series [5] (High humidity (relative humidity 92.5%, open), 5 days), “Crystal form A”; in series [5] (High humidity (relative humidity 92.5%, open), 10 days) it was “Crystal form A”; in series [5] (High temperature (60° C., open), 5 days), “Crystal form A”; in series [5] (High temperature (60° C., open), 10 days), “Crystal form A”; in series [5] (Light (total illumination = 1.2 × 10^6 Lux · hr/near ultraviolet = 200 w · hr/m^2, open), 5 days), “Crystal form A”. Besides, in series [5] (Light (total illumination = 1.2 × 10^6 Lux · hr/near ultraviolet = 200 w · hr/m^2, open), 10 days), the “Crystal form (XRPD)” value is on record as “Crystal form A”. Moreover, the “Stability under high temperature, high humidity, and strong light” value in series [5] (conclusion) is on record as “good stability”.

By IC50 is commonly meant the concentration that gives 50% inhibition. A lower IC50 goes with higher potency.

For the origin of these results see patent US20240383906A1, “5-SUBSTITUTED PYRIDINE-2(1H)-KETONE COMPOUND AND USE THEREOF” (JIANGSU KANION PHARMACEUTICAL CO., LTD., priority 2021, published 2024).
